Reference: paper PMC10496295, “In vitro cytotoxic effect of stigmasterol derivatives against breast cancer cells” (BMC Complementary Medicine and Therapies, 2023)
Like-named read-outs stand apart in the source and are kept apart here.

Assays:
[1] = system: MCF-12 A non-tumorigenic breast epithelial cell line; experiment: resazurin cytotoxicity assay, MCF-12 A cells; format: cell-based; conditions: Homo sapiens
[2] = system: U937 human monocytic cell line; set-up: method as in PMID 20828195; conditions: cited from earlier work; for reduction in cell viability / level of cell death compared to the untreated control: p < 0.05; for level of cell death compared to the untreated control: FDA/EtBr staining
[3] = system: MCF-7 hormone receptor-positive breast cancer cell line; experiment: resazurin cytotoxicity assay, MCF-7 cells; format: cell-based; conditions: for SI (selectivity index), MCF-7: EC50 against MCF12A cells ÷ EC50 against MCF-7 cells; for EC50: Homo sapiens
[4] = system: HCC70 triple negative breast cancer cell line; experiment: resazurin cytotoxicity assay, HCC70 cells; format: cell-based; conditions: for SI (selectivity index), HCC70: EC50 against MCF12A cells ÷ EC50 against HCC70 cells; for EC50: Homo sapiens
[5] = system: human breast cancer MCF-7 cell line; set-up: method as in PMID 33839518; conditions: read-out: IC50 against MCF-7 cell line; cited from earlier work
[6] = system: oxidative burst of the whole blood; set-up: method as in PMID 23136063; conditions: cited from earlier work
[7] = system: human gastric cancer cell line SNU-1; conditions: read-out: IC50, SNU-1 proliferation; cited from earlier work
[8] = system: human ovarian cancer cells ES2; set-up: method as in PMID 32481565; conditions: treatment concentration 20 µg/mL; cited from earlier work
[9] = system: human ovarian cancer cells OV90; set-up: method as in PMID 32481565; conditions: treatment concentration 20 µg/mL; cited from earlier work
[10] = MCF-12 A cells, 96 h treatment, resazurin assay, read-out: EC50 and Standard deviation, MCF-12 A
[11] = MCF7, MCF-7 cells, 96 h treatment, resazurin assay, read-out: EC50 and Standard deviation, MCF-7
[12] = HCC70 cells, 96 h treatment, resazurin assay, read-out: EC50 and Standard deviation, HCC70
[13] = MCF-12A, 96 h, read-out: EC50 and Standard deviation, MCF-12 A, MCF-12 A cells, 96 h treatment, resazurin assay
[14] = MCF7, 96 h, read-out: EC50 and Standard deviation, MCF-7, MCF-7 cells, 96 h treatment, resazurin assay
[15] = HCC70, 96 h, read-out: EC50 and Standard deviation, HCC70, HCC70 cells, 96 h treatment, resazurin assay

Row | Compound | EC50 [1, 10] [nM] | SI (selectivity index), MCF-7 [3] | EC50 [3, 11] [nM] | SI (selectivity index), HCC70 [4] | EC50 [4, 12] [nM] | melting point [°C] | other results
1 | CC[C@@H](C(C)C)C(O)C(O)[C@@H](C)C1CCC2C3CC4OC45C[C@@H](O)CC[C@]5(C)C3CC[C@@]21C (stereo partly drawn) [Compound 5, 5,6-Epoxystigmasta-3β,22,23-triol] | 30200 ± 1280 | 0.69 | 44000 ± 1400 | 0.90 | 33700 ± 1330 |  | reduction in cell viability ([2]; U937 cells, 60 and 120 µM): significantly reduced cell viability; level of cell death compared to the untreated control ([2]; U937 cells): significant; mode of cell death ([2]; U937 cells, staining with Hoechst 33,342): apoptosis
2 | CC[C@@]1(O)C(=O)OCc2c1cc1n(c2=O)Cc2cc3ccccc3nc2-1 [Camptothecin, reference compound] |  | 1.00 |  | 1.25 |  |  | EC50 ([1]; MCF-12 A cells, 96 h, resazurin assay, positive control, row unit nM, read-out: EC50 and Standard deviation, MCF-12 A): 104.2 ± 1.03 nM; EC50 ([3]; MCF7, MCF-7 cells, 96 h, resazurin assay, positive control, row unit nM, read-out: EC50 and Standard deviation, MCF-7): 104 ± 9.92 nM; EC50 ([4]; HCC70 cells, 96 h, resazurin assay, positive control, row unit nM, read-out: EC50 and Standard deviation, HCC70): 83.2 ± 1.08 nM
3 | N.N.[Cl][Pt][Cl] [cisplatin, reference compound] |  |  |  |  |  |  | IC50 [5]: 13.2 µM
4 | CC[C@@H](C(C)C)C(O)C(O)[C@@H](C)C1CCC2C3C(=O)C(O)C4(O)CC(=O)CC[C@]4(C)C3CC[C@@]21C (stereo partly drawn) [Compound 8, Stigmasta-3,7-dion-5,6,22,23-ol] | > 250000 |  | > 250000 |  | 53200 ± 1060 | 183 to 187 | 
5 | CC[C@@H](C(C)C)C(O)C(O)[C@@H](C)[C@H]1CC[C@H]2[C@@H]3C(=O)C=C4CC(=O)CC[C@]4(C)[C@H]3CC[C@]12C (stereo partly drawn) [Compound 7, Stigmasta-5-en-3,7-dion-22,23-diol] | 31600 ± 1120 | 1.36 | 23200 ± 1080 | 0.19 | 170100 ± 1180 | 137 to 140 | 
6 | CC[C@H](C=C[C@@H](C)[C@H]1CC[C@H]2[C@@H]3CC4OC45C[C@@H](O)CC[C@]5(C)[C@H]3CC[C@]12C)C(C)C (stereo partly drawn) [Compound 4, 5,6-Epoxystigmast-22-en-3β-ol] | 47000 ± 1180 |  | 21900 ± 1320 | 0.28 | 165700 ± 1300 | 142 to 145 | 
7 | CC[C@H](/C=C/[C@@H](C)C1CCC2C3CC=C4C[C@@H](OC(C)=O)CC[C@]4(C)C3CC[C@@]21C)C(C)C (stereo partly drawn) [Compound 2, Stigmasterol acetate] |  |  |  |  |  | 139 to 141 | EC50 [1, 13]: > 250000 nM; EC50 [3, 14]: > 250000 nM; EC50 [4, 15]: > 250000 nM
8 | CC(C)Cc1ccc(C(C)C(=O)O)cc1 (stereo not drawn) [ibuprofen, reference compound] |  |  |  |  |  |  | IC50 [6]: 12.1 µM
9 | CC[C@@H](C(C)C)C(O)C(O)[C@@H](C)[C@H]1CC[C@H]2[C@@H]3CC=C4C[C@@H](O)CC[C@]4(C)[C@H]3CC[C@]12C (stereo partly drawn) [Compound 9, Stigmast-5-ene-3β,22,23-triol] | 51800 ± 1130 |  | 22900 ± 1090 | 1.16 | 44500 ± 1130 |  | reduction in cell viability ([2]; U937 cells, 30, 60 and 120 µM): significant reduction; level of cell death compared to the untreated control ([2]; U937 cells): significant; cell viability ([2]; U937 cells, highest concentration 120 µM): 52.3%
10 | CC[C@H](C=C[C@@H](C)[C@H]1CC[C@H]2[C@@H]3CC=C4C[C@@H](O)CC[C@]4(C)[C@H]3CC[C@]12C)C(C)C [Compound 1, stigmasta-5,22-dien-3β-ol] |  |  |  |  |  |  | IC50 [7]: 15 µM; EC50 [1, 13]: > 250000 nM; reduction of growth of ES2 cells [8]: 50%; EC50 [3, 14]: > 250000 nM; IC50 [5]: 0.162 µM; reduction of growth of OV90 cells [9]: 50%; EC50 [4, 15]: > 250000 nM
11 | CC[C@H](C=C[C@@H](C)[C@H]1CC[C@H]2[C@@H]3C(=O)C=C4CC(=O)CC[C@]4(C)[C@H]3CC[C@]12C)C(C)C [Compound 3, Stigmasta-5,22-dien-3,7-dione] | 30200 ± 1240 | 0.70 | 42800 ± 1320 | 0.45 | 67700 ± 1260 | 152 to 155 | IC50 [6]: 15.6 ± 2.1 µM
12 | CC[C@@H](C(C)C)C(O)C(O)[C@@H](C)[C@H]1CC[C@H]2[C@@H]3CC(O)C4(O)C[C@@H](O)CC[C@]4(C)[C@H]3CC[C@]12C (stereo partly drawn) [Compound 6, Stigmastane-3β,5,6,22,23-pentol] | 22600 ± 1220 | 0.51 | 44100 ± 1400 |  | 16800 ± 1170 | 201 to 204 | 
